Laboratory results reported in ChEMBL document CHEMBL3885881, “DrugMatrix”.

Organism: Rattus norvegicus
Assay: DrugMatrix - Regimen: Daily Repeat
Format: toxicity, organism-based, Sprague-Dawley
Parameters: regimen Daily Repeat, gender Male, age 6-8 weeks
Details: in vivo, po, route oral GAVAGE, […]; for ABSOLUTE BASOPHIL / ABSOLUTE EOSINOPHIL / BASOPHIL / NUCLEATED RED BLOOD CELLS / EOSINOPHIL / ABSOLUTE MONOCYTE / ABSOLUTE SEGMENTED NEUTROPHIL / ERYTHROCYTE COUNT / HEMATOCRIT / HEMOGLOBIN / LEUKOCYTE COUNT / LYMPHOCYTE / MEAN CORPUSCULAR HEMOGLOBIN / MEAN CORPUSCULAR HEMOGLOBIN CONCENTRATION / MEAN CORPUSCULAR VOLUME / MONOCYTE / NEUTROPHIL / PLATELET COUNT: tissue Blood
[1] = 0 mg/kg, 72 h, dose level Control, time 3 day
[2] = 0 mg/kg, 72 h, tissue Plasma, dose level Control, time 3 day
[3] = 0 mg/kg, 120 h, dose level Control, time 5 day
[4] = 100 mg/kg, 72 h, dose level Low, time 3 day
[5] = 100 mg/kg, 72 h, tissue Plasma, dose level Low, time 3 day
[6] = 100 mg/kg, 120 h, dose level Low, time 5 day
[7] = 100 mg/kg, 120 h, tissue Plasma, dose level Low, time 5 day

COc1cc([C@@H]2c3cc4c(cc3[C@@H](O[C@@H]3O[C@@H]5CO[C@@H](C)O[C@H]5[C@H](O)[C@H]3O)[C@H]3COC(=O)[C@H]23)OCO4)cc(OC)c1O [ETOPOSIDE]
ABSOLUTE BASOPHIL [1]: 0 CELLS/uL | ABSOLUTE EOSINOPHIL [1]: 52.33 CELLS/uL | BASOPHIL [1]: 0% | NUCLEATED RED BLOOD CELLS [1]: 0 /100WBC | CREATININE [2]: 0.33 mg/dL | POTASSIUM [2]: 5.37 MEQ/L | TOTAL BILIRUBIN [2]: 0.2 mg/dL | ABSOLUTE BASOPHIL [3]: 0 CELLS/uL | ABSOLUTE EOSINOPHIL [3]: 0 CELLS/uL | BASOPHIL [3]: 0% | EOSINOPHIL [3]: 0% | TOTAL BILIRUBIN (0 mg/kg, 120 h, tissue Plasma, dose level Control, time 5 day): 0.37 mg/dL | ABSOLUTE BASOPHIL [4]: 0 CELLS/uL | ABSOLUTE EOSINOPHIL [4]: 0 CELLS/uL | ABSOLUTE MONOCYTE [4]: 20.33 CELLS/uL | ABSOLUTE SEGMENTED NEUTROPHIL [4]: 390.33 CELLS/uL | BASOPHIL [4]: 0% | EOSINOPHIL [4]: 0% | ERYTHROCYTE COUNT [4]: 4.86 x10E6/uL | HEMATOCRIT [4]: 29.9% | HEMOGLOBIN [4]: 12.13 G/DL | LEUKOCYTE COUNT [4]: 5.67 x10E3/uL | LYMPHOCYTE [4]: 90% | MEAN CORPUSCULAR HEMOGLOBIN [4]: 24.93 pg | MEAN CORPUSCULAR HEMOGLOBIN CONCENTRATION [4]: 40.57 G/DL | MEAN CORPUSCULAR VOLUME [4]: 61.53 fL | MONOCYTE [4]: 0.33% | NEUTROPHIL [4]: 9.67% | NUCLEATED RED BLOOD CELLS [4]: 0 /100WBC | PLATELET COUNT [4]: 1214.33 x10E3/uL | ALANINE AMINOTRANSFERASE [5]: 36.67 u/L | ALBUMIN [5]: 3.7 G/DL | ASPARTATE AMINOTRANSFERASE [5]: 67.67 u/L | BLOOD UREA NITROGEN [5]: 7.67 mg/dL | CARBON DIOXIDE [5]: 27 mmol/L | CHLORIDE [5]: 102.67 MEQ/L | CHOLESTEROL [5]: 92 mg/dL | CREATINE PHOSPHOKINASE [5]: 255.67 u/L | CREATININE [5]: 0.23 mg/dL | GLUCOSE [5]: 185 mg/dL | LACTATE DEHYDROGENASE [5]: 162.33 u/L | PHOSPHORUS [5]: 11 mg/dL | POTASSIUM [5]: 4.69 MEQ/L | SODIUM [5]: 145 MEQ/L | TOTAL BILIRUBIN [5]: 0.1 mg/dL | TOTAL PROTEIN [5]: 5.5 G/DL | URIC ACID [5]: 0.8 mg/dL | ABSOLUTE BASOPHIL [6]: 0 CELLS/uL | ABSOLUTE EOSINOPHIL [6]: 0 CELLS/uL | ABSOLUTE MONOCYTE [6]: 12 CELLS/uL | ABSOLUTE SEGMENTED NEUTROPHIL [6]: 593.67 CELLS/uL | BASOPHIL [6]: 0% | EOSINOPHIL [6]: 0% | ERYTHROCYTE COUNT [6]: 4.82 x10E6/uL | HEMATOCRIT [6]: 30.6% | HEMOGLOBIN [6]: 12.2 G/DL | LEUKOCYTE COUNT [6]: 4.43 x10E3/uL | LYMPHOCYTE [6]: 86% | MEAN CORPUSCULAR HEMOGLOBIN [6]: 25.37 pg | MEAN CORPUSCULAR HEMOGLOBIN CONCENTRATION [6]: 39.9 G/DL | MEAN CORPUSCULAR VOLUME [6]: 63.67 fL | MONOCYTE [6]: 0.33% | NEUTROPHIL [6]: 13.67% | NUCLEATED RED BLOOD CELLS [6]: 0 /100WBC | PLATELET COUNT [6]: 1205.67 x10E3/uL | ALANINE AMINOTRANSFERASE [7]: 53.33 u/L | ALBUMIN [7]: 3.97 G/DL | ASPARTATE AMINOTRANSFERASE [7]: 81 u/L | BLOOD UREA NITROGEN [7]: 8.33 mg/dL | CHLORIDE [7]: 104.33 MEQ/L | CHOLESTEROL [7]: 87.67 mg/dL | CREATINE PHOSPHOKINASE [7]: 278.33 u/L | CREATININE [7]: 0.3 mg/dL | GLUCOSE [7]: 157 mg/dL | LACTATE DEHYDROGENASE [7]: 65.67 u/L | LIPASE [7]: 8.67 u/L
